# In patent publication US9827315B2, “Compositions of pharmaceutical actives containing diethylene glycol monoethyl ether or other alkyl derivatives” (THEMIS MEDICARE LIMITED, priority 2013, dated 2017):
# Counter-ions that a name gives are not always drawn. Like-named read-outs stand apart in the source and are kept apart here.
# Legend:
# [1] = cited from earlier work
# [2] = Solubility of pharmaceutical actives in Diethylene glycol monoethyl ether; details: for solubility: Diethylene glycol monoethyl ether, organic solvent or mixture, Solubility in Diethylene Glycol Monoethyl Ether
# physchem = details: organic solvent or mixture, Solubility in Diethylene Glycol Monoethyl Ether
molecule,measurement,setting,value
"CN(C/C=C/C#CC(C)(C)C)Cc1cccc2ccccc12 [Terbinafine, [(2E)-6,6-dimethylhept-2-en-4-yn-1-yl](methyl)(naphthalen-1-ylmethyl)amine]",Solubility in water (descriptive),[1],slightly soluble
same,solubility,[2],16.7 mg/mL
CCOC(=O)O[C@]1(C(=O)OCCl)CC[C@H]2[C@@H]3CCC4=CC(=O)C=C[C@]4(C)[C@H]3[C@@H](O)C[C@@]21C [Loteprednol],solubility in water,[1],8 μg per 1t
same,solubility,physchem,25 mg/mL
"CC(=O)O[C@H]1C(=O)[C@@]2(C)[C@H]([C@H](OC(=O)c3ccccc3)[C@]3(O)CC(OC(=O)[C@H](O)[C@@H](NC(=O)c4ccccc4)c4ccccc4)C(C)=C1C3(C)C)[C@]1(OC(C)=O)CO[C@@H]1C[C@@H]2O (stereo partly drawn) [Paclitaxel, (2α,4α,5β,7β,10β,13α)-4,10-bis(acetyloxy)-13-{[(2R,3S)-3-(benzoylamino)-2-hydroxy-3-phenylpropanoyl]oxy}-1,7-dihydroxy-9-oxo-5,20-epoxytax-11-en-2-yl benzoate]",Solubility in water (descriptive),[1],insoluble
same,solubility,physchem,23.8 mg/mL
"CCCCCCC(=O)O[C@H]1CC[C@H]2C3CCC4=CC(=O)CCC4(C)[C@H]3CCC12C (stereo partly drawn) [Testosterone Enanthate, Testosterone enanthate]",Solubility in water (descriptive),[1],insoluble
same,solubility,physchem,55.5 mg/mL
CCOC(=O)C1=C[C@]2(CC)CCCN3CCc4c(n1c1ccccc41)[C@@H]32 [Vinpocetine],Solubility in water (descriptive),[1],"Soluble in DMSO, DMF, ethanol, acetic acid, acetone, and chloroform. Insoluble in water."
same,solubility,[2],12 mg/mL
"CO[C@H]1O[C@@H]2O[C@@]3(C)CC[C@H]4[C@H](C)CC[C@@H]([C@H]1C)[C@@]24OO3 [Artemether, (+)-(3-alpha,5a-beta,6-beta,8a-beta, 9-alpha,12-beta,12aR)-decahydro-10-methoxy-3,6,9-trimethyl-3,12-epoxy-12H-pyrano(4,3-j)-1,2-benzodioxepin]",Solubility in water (descriptive),[1],practically insoluble
same,solubility,[2],100 mg/mL
NC[C@H]1O[C@H](O[C@H]2[C@H](O)[C@@H](O[C@H]3O[C@H](CO)[C@@H](O)[C@H](N)[C@H]3O)[C@H](N)C[C@@H]2N)[C@H](N)C[C@@H]1O [Tobramycin],Solubility in water (descriptive),[1],Soluble
same,solubility,[2],3 mg/mL
"C[C@]12CC[C@@H]3c4ccc(O)cc4C[C@@H](CCCCCCCCC[S+]([O-])CCCC(F)(F)C(F)(F)F)[C@H]3[C@@H]1CC[C@@H]2O (stereo partly drawn) [Fulvestrant, 7-alpha-[9-(4,4,5,5,5-pentafluoropentylsulphinyl)nonyl]estra-1,3,5-(10)-triene-3,17beta-diol]",Solubility in water (descriptive),[1],practically insoluble
same,solubility,[2],58.8 mg/mL
CCN1CCCC1CNC(=O)c1cc(S(=O)(=O)CC)c(N)cc1OC (stereo not drawn) [Amilsulpride],Solubility in water (descriptive),[1],"Practically insoluble in water, sparingly soluble in ethanol, soluble in methanol and freely soluble in dichloromethane"
same,solubility,[2],25 mg/mL
"O=C(CCCN1CCC(O)(c2ccc(Cl)cc2)CC1)c1ccc(F)cc1 [Haloperidol, 4-[4-(p-chlorophenyl)-4-hydroxypiperidino]-4′-fluorobutyrophenone]",solubility in water,[1],1.4 mg/100 ml
same,solubility in 0.1 N hydrochloric acid,[1]; with heating,3 mg/mL
same,solubility,physchem,8.3 mg/mL
NC(=O)Cc1cccc(C(=O)c2ccccc2)c1N [Nepafenac],solubility,[2],≤ 2 mg/mL
"COC(=O)[C@@H]1CC2=CC(=O)CC[C@]2(C)[C@@]23O[C@@H]2C[C@@]2(C)[C@@H](CC[C@@]24CCC(=O)O4)[C@H]13 [Eplerenone, pregn-4-ene-7,21-dicarboxylic acid, 9,11-epoxy-17-hydroxy-3-oxo, γ-lactone, methyl ester (7α, 11α, 17α)]",octanol/water partition coefficient,[1]; at pH 7.0,approximately 7.1
same,Solubility in water (descriptive),[1],very slightly soluble
O=C1[C@H](CC[C@H](O)c2ccc(F)cc2)[C@@H](c2ccc(O)cc2)N1c1ccc(F)cc1 [Ezetimibe],Solubility in water (descriptive),[1],"Freely to very soluble in ethanol, methanol, and acetone and practically insoluble in water."
"CC1(C)O[C@@H]2C[C@H]3[C@@H]4CCC5=CC(=O)C=C[C@]5(C)[C@@]4(F)[C@@H](O)C[C@]3(C)[C@]2(C(=O)CO)O1 [Triamcinolone Acetonide, 9-Fluoro-11β,16α,17,21-tetrahydroxypregna-1,4-diene-3,20-dione cyclic 16,17acetal with acetone]",Solubility in water (descriptive),[1],practically insoluble
"Cc1ccc(-c2ncc(Cl)cc2-c2ccc(S(C)(=O)=O)cc2)cn1 [Etoricoxib, 5-chloro-6′-methyl-3-[4-(methylsulfonyl)phenyl]-2,3′-bipyridine]",solubility in water,[1],about 3.3 mg/L
"OC(Cn1cncn1)(Cn1cncn1)c1ccc(F)cc1F [Fluconazole, 2-(2,4-difluorophenyl)-1,3-bis(1H-1,2,4-triazol-1-yl)propan-2-ol]",Solubility in water (descriptive),[1],very slightly soluble
"COc1cc([C@@H]2c3cc4c(cc3[C@@H](O[C@@H]3O[C@@H]5CO[C@@H](C)O[C@H]5[C@H](O)[C@H]3O)[C@H]3COC(=O)[C@H]23)OCO4)cc(OC)c1O [Etoposide, 4′-demethylepipodophyllotoxin 9-[4,6-0-(R)-ethylidene-β-D-glucopyranoside]]",Solubility in water (descriptive),[1],sparingly soluble
same,solubility,physchem,30 mg/mL
CC1=C(/C=C/C(C)=C/C=C/C(C)=C/C(=O)O)C(C)(C)CCC1 [Tretinoin],Solubility in water (descriptive),[1],Insoluble in water
"Cc1c(OCC(F)(F)F)ccnc1C[S@@+]([O-])c1nc2ccccc2[nH]1 [Dexlansoprazole, (R)-(+)2-([3-methyl-4-(2,2,2-trifluoroethoxy)pyridin-2-yl]methylsulfinyl)-1H-benzo[d]imidazole]",Solubility in water (descriptive),[1],very slightly soluble
Cc1ccc(-c2cc(C(F)(F)F)nn2-c2ccc(S(N)(=O)=O)cc2)cc1 [Celecoxib],solubility in DMSO,[1],200 mg/mL
same,solubility in ethanol,[1],100 mg/mL
same,Solubility in water (descriptive),[1],very poorly soluble
same,solubility,[2],71.4 mg/mL
C=C(c1ccc(C(=O)O)cc1)c1cc2c(cc1C)C(C)(C)CCC2(C)C [Bexarotene],Solubility in water (descriptive),[1],"Insoluble in water and slightly soluble in vegetable oils and ethanol, USP"
Tacrolimus,Solubility in water (descriptive),[1],"Insoluble in water, freely soluble in ethanol, and very soluble in methanol and chloroform."
"CN1C(C(=O)Nc2ccccn2)=C(O)c2sc(Cl)cc2S1(=O)=O [Lornoxicam, (3E)-6-chloro-3-[hydroxy(pyridin-2-ylamino)methylene]-2-methyl-2,3-dihydro-4H-thieno[2,3-e][1,2]thiazin-4-one 1,1-dioxide]",Solubility in water (descriptive),[1],hardly soluble
COc1ccnc(C[S+]([O-])c2nc3ccc(OC(F)F)cc3[nH]2)c1OC (stereo not drawn) [Pantoprazole],Solubility in Diethylene Glycol Monoethyl Ether,[2],80 mg/mL
CCN[C@H]1CN(CCCOC)S(=O)(=O)c2sc(S(N)(=O)=O)cc21 [Brinzolamide],solubility,physchem,55.6 mg/mL
Rimexolone,Solubility in water (descriptive),[1],Very slightly soluble in water; freely soluble in chloroform; soluble in ethyl acetate and in methanol
"CCOC1O[C@@H]2O[C@@]3(C)CC[C@H]4[C@H](C)CC[C@@H]([C@H]1C)[C@@]24OO3 (mixture of isomers) [Arteether, 10-Ethoxydecahydro-3,6,9-trimethyl-3,12-epoxy-12H-pyrano[4,3-j]-1,2-benzodioxepin]",Solubility in water (descriptive),[1],quite water insoluble
same,Solubility in Diethylene Glycol Monoethyl Ether,[2],80 mg/mL
"(3R,4S,5S,6R,7R,9R,11R,12R,13S,14R)-4-[(2,6-Dideoxy-3-C-methyl-3-O-methyl-a-L-ribo-hexopyranosyl)oxy]-14-ethyl-12,13-dihydroxy-7-methoxy-3,5,7,9,11,13-hexamethyl-6-[[3,4,6-trideoxy-3-(dimethylamino)-b-D-xylo-hexopyranosyl]oxy]oxacyclotetradecane-2,10-dione [Clarithromycin]",Solubility in water (descriptive),[1],insoluble
NC(Cc1ccc(N(CCCl)CCCl)cc1)C(=O)O (stereo not drawn) [Melphalan],solubility (solvent not given),[1]; at 22° C.,< 0.1 g/100 mL
"CC(=O)O[C@@]12CO[C@@H]1C[C@H](O)[C@@]1(C)C(=O)[C@H](O)C3=C(C)[C@@H](OC(=O)[C@H](O)[C@@H](NC(=O)OC(C)(C)C)c4ccccc4)C[C@@](O)([C@@H](OC(=O)c4ccccc4)[C@H]21)C3(C)C [Docetaxel, 1,7β,10β-trihydroxy-9-oxo-5β,20-epoxytax-11-ene-2α,4,13α-triyl 4-acetate 2-benzoate 13-{(2R,3S)-3-[(tert-butoxycarbonyl)amino]-2-hydroxy-3-phenylpropanoate}]",Solubility in water (descriptive),[1],practically insoluble
same,solubility,[2],55 mg/mL
"CCCCC[C@H](O)/C=C/[C@H]1[C@H](O)CC(=O)[C@@H]1CCCCCCC(=O)O [Prostaglandin E1 (Alprostadil), (11α,13E,15S)-11,15-dihydroxy-9-oxoprost-13-en-1-oic acid]",solubility in double distilled water,[1]; at 35° C.,8000 micrograms per 100 milliliter
same,solubility,physchem,50 mg/mL
Brc1c(NC2=NCCN2)ccc2nccnc12 [Brimonidine tartarate],solubility in water,[1]; at pH 6.5,34 mg/mL
"COC(=O)C1=C(C)NC(C)=C(C(=O)OC2CCN(Cc3ccccc3)C2)[C@H]1c1cccc([N+](=O)[O-])c1.Cl (stereo in doubt) [Barnidipine Hydrochloride, 3-(3R)-1-benzylpyrrolidin-3-yl 5-methyl 2,6-dimethyl-4-(3-nitrophenyl)-1,4-dihydropyridine-3,5-dicarboxylate]",Solubility in water (descriptive),[1],insoluble
"CCCCCCCCCC(=O)O[C@H]1CC[C@H]2[C@@H]3CCC4=CC(=O)CC[C@@H]4[C@H]3CC[C@]12C [Nandrolone Decoanate, Estr-4-en-3-one,17-[(1-oxodecyl)oxy]-,(17b)-]",Solubility in water (descriptive),[1],practically insoluble
"COC(=O)C1=C(C)NC(C)=C(C(=O)O[C@@H]2CCCN(Cc3ccccc3)C2)C1c1cccc([N+](=O)[O-])c1 (stereo partly drawn) [Benidipine Hydrochloride, O5-methyl O3-[(3R)-1-(phenylmethyl)piperidin-3-yl]2,6-dimethyl-4-(3-nitrophenyl)-1,4-dihydropyridine-3,5-dicarboxylate]",Solubility in water (descriptive),[1],practically insoluble
